From patent US10934298B2, “Substituted pyrazolo[1,5-a]pyrimidines for the treatment of medical disorders” (BIAL—BioTech Investments, Inc., priority 2016, dated 2021)
Blank lines part the entries; values can stand above or below the molecule they belong to.

Target: T1, glucocerebrosidase (Gcase) (Homo sapiens, UniProt P04062)
T1 construct: micellar solution containing 10 nM GCase and 100 nM saposin C
T1 sequence (P04062 40-536): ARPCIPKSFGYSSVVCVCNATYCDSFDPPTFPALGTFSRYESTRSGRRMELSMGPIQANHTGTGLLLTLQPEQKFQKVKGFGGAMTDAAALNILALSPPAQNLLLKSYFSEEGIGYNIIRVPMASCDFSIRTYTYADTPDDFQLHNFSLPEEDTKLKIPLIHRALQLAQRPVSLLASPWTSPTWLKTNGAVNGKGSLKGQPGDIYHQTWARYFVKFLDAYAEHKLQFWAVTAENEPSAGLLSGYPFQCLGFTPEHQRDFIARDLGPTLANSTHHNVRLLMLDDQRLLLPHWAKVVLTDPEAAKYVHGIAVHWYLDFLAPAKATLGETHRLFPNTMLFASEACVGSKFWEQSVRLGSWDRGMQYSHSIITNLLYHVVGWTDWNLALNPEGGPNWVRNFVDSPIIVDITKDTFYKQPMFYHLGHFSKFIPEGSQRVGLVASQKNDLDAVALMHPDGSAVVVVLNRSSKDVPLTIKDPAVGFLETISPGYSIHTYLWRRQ
Assay: Glucocerebrosidase (Gcase) activation assay with 4-methylumbelliferyl-beta-D-glucopyranoside substrate, saposin C and phosphatidylserine/triton micelles, fluorescence readout
Assay type: biochemical
Settings: for Percent Gcase Activation, 0.1 μM Test Compound: test compound at 0.1 μM; for Percent Gcase Activation, 1 μM Test Compound: test compound at 1.0 μM
Summary of the method: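 Readout is endpoint fluorescence (ex 365, em 440 nm) after glycine pH 12.5 stop of a 15-min room-temperature reaction. Enzyme mix: GCase 10 nM plus saposin C 100 nM in 0.37 mol % PS/0.32 mM triton micelles, pH 4.7, compound pre-incubated 30 min; substrate solution 2 mM before 1:1 mixing. Tested at 1.0/0.1 μM, then 3-fold, 8-point series up to 5 μM.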

Percent Gcase Activation, 1 μM Test Compound: +++ (Gcase activation greater than 60%)
Compound: Cc1cc(NC2CC2)nc2c(C(=O)N[C@@H](C)C3CC3)cnn12 [III-166]
Percent Gcase Activation, 0.1 μM Test Compound: ** (Gcase activation in the range of 10% up to 20%)

Percent Gcase Activation, 0.1 μM Test Compound: *** (greater than 20% Gcase activation)
Percent Gcase Activation, 1 μM Test Compound: +++ (Gcase activation greater than 60%)
Compound: Cc1cc(-c2ccc3ocnc3c2)nc2c(C(=O)NC(C)C(F)(F)F)cnn12 (stereo not drawn) [III-169]

Percent Gcase Activation, 0.1 μM Test Compound: *** (greater than 20% Gcase activation)
Percent Gcase Activation, 1 μM Test Compound: +++ (Gcase activation greater than 60%)
Compound: Cc1cc(-c2cccc(-c3ncncn3)c2)nc2c(C(=O)NC(C3CC3)C(F)(F)F)cnn12 (stereo not drawn) [III-177]

Percent Gcase Activation, 0.1 μM Test Compound: *** (greater than 20% Gcase activation)
Percent Gcase Activation, 1 μM Test Compound: +++ (Gcase activation greater than 60%)
Compound: Cc1cc(N2CCCC(F)(F)C2)nc2c(C(=O)NC(C)C(F)(F)F)cnn12 (stereo not drawn) [III-179]

Percent Gcase Activation, 0.1 μM Test Compound: *** (greater than 20% Gcase activation)
Percent Gcase Activation, 1 μM Test Compound: +++ (Gcase activation greater than 60%)
Compound: Cc1cc(-c2cccc3c2OCO3)nc2c(C(=O)NC(C3CC3)C(F)(F)F)cnn12 (stereo not drawn) [III-183]

Percent Gcase Activation, 0.1 μM Test Compound: *** (greater than 20% Gcase activation)
Percent Gcase Activation, 1 μM Test Compound: +++ (Gcase activation greater than 60%)
Compound: Cc1cc(C)n2ncc(C(=O)NC(c3ccc(F)cc3)C(F)(F)F)c2n1 (stereo not drawn) [III-184]

Percent Gcase Activation, 0.1 μM Test Compound: *** (greater than 20% Gcase activation)
Percent Gcase Activation, 1 μM Test Compound: +++ (Gcase activation greater than 60%)
Compound: Cc1cc(-c2ccco2)nc2c(C(=O)NC(C3CC3)C(F)(F)F)cnn12 (stereo not drawn) [III-186]

Percent Gcase Activation, 0.1 μM Test Compound: *** (greater than 20% Gcase activation)
Percent Gcase Activation, 1 μM Test Compound: +++ (Gcase activation greater than 60%)
Compound: Cc1cc(-c2ccoc2)nc2c(C(=O)NC(C3CC3)C(F)(F)F)cnn12 (stereo not drawn) [III-187]

Percent Gcase Activation, 0.1 μM Test Compound: *** (greater than 20% Gcase activation)
Percent Gcase Activation, 1 μM Test Compound: +++ (Gcase activation greater than 60%)
Compound: Cc1cc(-c2sccc2C#N)nc2c(C(=O)NC(C3CC3)C(F)(F)F)cnn12 (stereo not drawn) [III-189]

Percent Gcase Activation, 0.1 μM Test Compound: * (less than 10% Gcase activation)
Percent Gcase Activation, 1 μM Test Compound: + (less than 30% Gcase activation)
Compound: Cc1cc(C)n2ncc(C(=O)N[C@H]3CC[C@H](OC(C)(C)C)CC3)c2n1 [III-190]

Percent Gcase Activation, 0.1 μM Test Compound: * (less than 10% Gcase activation)
Percent Gcase Activation, 1 μM Test Compound: +++ (Gcase activation greater than 60%)
Compound: Cc1cc(C)n2ncc(C(=O)N[C@H]3CC[C@H](OCC(C)C)CC3)c2n1 [III-191]

Percent Gcase Activation, 0.1 μM Test Compound: *** (greater than 20% Gcase activation)
Percent Gcase Activation, 1 μM Test Compound: +++ (Gcase activation greater than 60%)
Compound: Cc1cc(-c2ccc3scnc3c2)nc2c(C(=O)N[C@H](C)C3CC3)cnn12 [III-193]

Continued, molecule first:

Compound: Cc1cc(-c2ccc3ocnc3c2)nc2c(C(=O)N[C@H](C)C(F)(F)F)cnn12 [III-167]
Percent Gcase Activation, 0.1 μM Test Compound: *** (greater than 20% Gcase activation)
Percent Gcase Activation, 1 μM Test Compound: +++ (Gcase activation greater than 60%)

Compound: Cc1cc(-c2ccc3ocnc3c2)nc2c(C(=O)N[C@@H](C)C(F)(F)F)cnn12 [III-168]
Percent Gcase Activation, 0.1 μM Test Compound: *** (greater than 20% Gcase activation)
Percent Gcase Activation, 1 μM Test Compound: +++ (Gcase activation greater than 60%)

Compound: Cc1cc(-n2ccc(Cl)n2)nc2c(C(=O)NC(C)C(F)(F)F)cnn12 (stereo not drawn) [III-170]
Percent Gcase Activation, 0.1 μM Test Compound: ** (Gcase activation in the range of 10% up to 20%)
Percent Gcase Activation, 1 μM Test Compound: ++ (Gcase activation in the range of 30% up to 60%)

Compound: Cc1cc(-n2ccc(F)n2)nc2c(C(=O)NC(C3CC3)C(F)(F)F)cnn12 (stereo not drawn) [III-172]
Percent Gcase Activation, 0.1 μM Test Compound: *** (greater than 20% Gcase activation)
Percent Gcase Activation, 1 μM Test Compound: +++ (Gcase activation greater than 60%)

Compound: Cc1cc(-n2ccc(F)n2)nc2c(C(=O)N[C@H](C3CC3)C(F)(F)F)cnn12 [III-173]
Percent Gcase Activation, 0.1 μM Test Compound: *** (greater than 20% Gcase activation)
Percent Gcase Activation, 1 μM Test Compound: +++ (Gcase activation greater than 60%)

Compound: Cc1cc(-n2ccc(F)n2)nc2c(C(=O)N[C@@H](C3CC3)C(F)(F)F)cnn12 [III-174]
Percent Gcase Activation, 0.1 μM Test Compound: *** (greater than 20% Gcase activation)
Percent Gcase Activation, 1 μM Test Compound: +++ (Gcase activation greater than 60%)

Compound: Cc1cc(-c2cccc(-c3ncccn3)n2)nc2c(C(=O)NC(C3CC3)C(F)(F)F)cnn12 (stereo not drawn) [III-175]
Percent Gcase Activation, 0.1 μM Test Compound: * (less than 10% Gcase activation)
Percent Gcase Activation, 1 μM Test Compound: + (less than 30% Gcase activation)

Compound: Cc1cc(-c2cccc(-c3ncon3)c2)nc2c(C(=O)NC(C3CC3)C(F)(F)F)cnn12 (stereo not drawn) [III-176]
Percent Gcase Activation, 0.1 μM Test Compound: *** (greater than 20% Gcase activation)
Percent Gcase Activation, 1 μM Test Compound: +++ (Gcase activation greater than 60%)

Compound: Cc1cc(-c2ccns2)nc2c(C(=O)NC(C)C(F)(F)F)cnn12 (stereo not drawn) [III-178]
Percent Gcase Activation, 0.1 μM Test Compound: ** (Gcase activation in the range of 10% up to 20%)
Percent Gcase Activation, 1 μM Test Compound: +++ (Gcase activation greater than 60%)

Compound: Cc1cc(N2CCC(F)(F)C2)nc2c(C(=O)NC(C)C(F)(F)F)cnn12 (stereo not drawn) [III-180]
Percent Gcase Activation, 0.1 μM Test Compound: ** (Gcase activation in the range of 10% up to 20%)
Percent Gcase Activation, 1 μM Test Compound: +++ (Gcase activation greater than 60%)

Compound: Cc1cc(N2CCC(F)(F)CC2)nc2c(C(=O)NC(C)C(F)(F)F)cnn12 (stereo not drawn) [III-181]
Percent Gcase Activation, 0.1 μM Test Compound: * (less than 10% Gcase activation)
Percent Gcase Activation, 1 μM Test Compound: +++ (Gcase activation greater than 60%)

Compound: Cc1cc(-c2cccc3c2OCO3)nc2c(C(=O)N[C@@H](C)C3CC3)cnn12 [III-182]
Percent Gcase Activation, 0.1 μM Test Compound: *** (greater than 20% Gcase activation)
Percent Gcase Activation, 1 μM Test Compound: ++ (Gcase activation in the range of 30% up to 60%)

Compound: Cc1cc(-c2ccc(C#N)o2)nc2c(C(=O)NC(C3CC3)C(F)(F)F)cnn12 (stereo not drawn) [III-185]
Percent Gcase Activation, 0.1 μM Test Compound: *** (greater than 20% Gcase activation)
Percent Gcase Activation, 1 μM Test Compound: +++ (Gcase activation greater than 60%)

Compound: Cc1cc(-c2cscc2C#N)nc2c(C(=O)NC(C3CC3)C(F)(F)F)cnn12 (stereo not drawn) [III-188]
Percent Gcase Activation, 0.1 μM Test Compound: *** (greater than 20% Gcase activation)
Percent Gcase Activation, 1 μM Test Compound: +++ (Gcase activation greater than 60%)

Compound: Cc1cc(-c2ccc3scnc3c2)nc2c(C(=O)N[C@@H](C)C3CC3)cnn12 [III-192]
Percent Gcase Activation, 0.1 μM Test Compound: *** (greater than 20% Gcase activation)
Percent Gcase Activation, 1 μM Test Compound: +++ (Gcase activation greater than 60%)

Compound: COc1ccc(F)cc1-c1cc(C)n2ncc(C(=O)NC(C)C(F)(F)F)c2n1 (stereo not drawn) [III-194]
Percent Gcase Activation, 0.1 μM Test Compound: *** (greater than 20% Gcase activation)
Percent Gcase Activation, 1 μM Test Compound: +++ (Gcase activation greater than 60%)

Compound: COc1ccc(F)cc1-c1cc(C)n2ncc(C(=O)N[C@H](C)C(F)(F)F)c2n1 [III-195]
Percent Gcase Activation, 0.1 μM Test Compound: *** (greater than 20% Gcase activation)
Percent Gcase Activation, 1 μM Test Compound: +++ (Gcase activation greater than 60%)

Compound: COc1ccc(F)cc1-c1cc(C)n2ncc(C(=O)N[C@@H](C)C(F)(F)F)c2n1 [III-196]
Percent Gcase Activation, 0.1 μM Test Compound: *** (greater than 20% Gcase activation)
Percent Gcase Activation, 1 μM Test Compound: +++ (Gcase activation greater than 60%)
